Reference: US20240279202A1 (NURIX THERAPEUTICS, INC., priority 2021, published 2024)

Biological target: T1, ITK (Homo sapiens, UniProt Q08881)
T1 sequence (Q08881 1-620): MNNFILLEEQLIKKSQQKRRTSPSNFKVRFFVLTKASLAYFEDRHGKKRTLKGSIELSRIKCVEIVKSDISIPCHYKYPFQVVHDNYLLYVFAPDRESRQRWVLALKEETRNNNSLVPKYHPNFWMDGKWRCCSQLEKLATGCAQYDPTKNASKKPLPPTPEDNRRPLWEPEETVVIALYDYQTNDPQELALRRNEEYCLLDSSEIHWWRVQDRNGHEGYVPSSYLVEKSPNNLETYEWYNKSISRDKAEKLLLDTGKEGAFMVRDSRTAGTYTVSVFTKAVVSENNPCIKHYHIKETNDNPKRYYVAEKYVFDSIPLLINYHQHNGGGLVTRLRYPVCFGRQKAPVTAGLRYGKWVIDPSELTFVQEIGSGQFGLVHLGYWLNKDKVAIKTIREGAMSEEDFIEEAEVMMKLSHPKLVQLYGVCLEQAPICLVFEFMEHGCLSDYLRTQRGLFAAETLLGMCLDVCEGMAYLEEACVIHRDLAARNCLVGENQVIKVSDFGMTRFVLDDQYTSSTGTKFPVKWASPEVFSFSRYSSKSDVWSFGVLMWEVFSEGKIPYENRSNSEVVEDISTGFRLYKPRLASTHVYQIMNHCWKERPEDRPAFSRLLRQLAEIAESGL
Test: ITK degradation HiBiT assay
Type: cell-based
Parameters: expressed in transfected cells; host or cells: Molt4 (ATCC CRL-1552), monoclonal clone 1C10, engineered to carry the HiBiT tag
Conditions: 4 hrs; for Dmax: MOLT-4, C-terminal HiBiT-tagged Molt4 cells
In short: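 C-terminal HiBiT-tagged Molt4 cells (clone 1C10) treated 4 h at 32° C with an 11-point, 5-fold compound dilution series (0.5% DMSO). HiBiT lytic detection with LgBiT then luminescence read; % ITK remaining versus concentration fit by four-parameter variable-slope model to give DC50 and Dmax.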

[1] = C-terminal HiBiT-tagged Molt4 cells

Row | Compound | DC50 [1] | Dmax | HiBiT DMax (%) [1]
1 | C[C@@]12Cc3[nH]nc(C(=O)Nc4cnn(CC5CN(C(=O)C6CCN(c7ccc(C8CCC(=O)NC8=O)cn7)CC6)C5)c4)c3C[C@@H]1C2(F)F (stereo partly drawn) [Compound 50, (4aS,5aR)-N-(1-((1-(1-(5-(2,6-dioxopiperidin-3-yl)pyridin-2-yl)piperidine-4-carbonyl)azetidin-3-yl)methyl)-1H-pyrazol-4-yl)-5,5-difluoro-5a-methyl-1,4,4a,5,5a,6-hexahydrocyclopropa[f]indazole-3-carboxamide] | 0.21 nM | – | –
2 | CN(C(=O)CC1CCN(CC2CCN(c3ccc(C4CCC(=O)NC4=O)cn3)CC2)CC1)c1ccc2cc(-c3n[nH]c4c3C[C@@H]3C(F)(F)[C@]3(C)C4)[nH]c2c1 (stereo partly drawn) [Compound 73, N-(2-((4aS,5aR)-5,5-difluoro-5a-methyl-1,4,4a,5,5a,6-hexahydrocyclopropa[f]indazol-3-yl)-1H-indol-6-yl)-2-(1-((1-(5-(2,6-dioxopiperidin-3-yl)pyridin-2-yl)piperidin-4-yl)methyl)piperidin-4-yl)-N-methylacetamide] | 1.6 nM | – | –
3 | CN(C(=O)CC1CCN(CC2CCN(c3ccc(C(=O)NC4CCC(=O)NC4=O)nc3)CC2)CC1)c1ccc2cc(-c3n[nH]c4c3C[C@@H]3C(F)(F)[C@]3(C)C4)[nH]c2c1 (stereo partly drawn) [Compound 75, 5-(4-((4-(2-((2-((4aS,5aR)-5,5-difluoro-5a-methyl-1,4,4a,5,5a,6-hexahydrocyclopropa[f]indazol-3-yl)-1H-indol-6-yl)(methyl)amino)-2-oxoethyl)piperidin-1-yl)methyl)piperidin-1-yl)-N-(2,6-dioxopiperidin-3-yl)picolinamide] | 0.5 nM | 83% | –
4 | C[C@@]12Cc3[nH]nc(-c4cc5ccc(N6CCC7(CCN(CC8CCN(c9ccc(C%10CCC(=O)NC%10=O)cn9)CC8)CC7)C6=O)cc5[nH]4)c3C[C@@H]1C2(F)F (stereo partly drawn) [Compound 19, 3-(6-(4-((2-(2-((4aS,5aR)-5,5-difluoro-5a-methyl-1,4,4a,5,5a,6-hexahydrocyclopropa[f]indazol-3-yl)-1H-indol-6-yl)-1-oxo-2,8-diazaspiro[4.5]decan-8-yl)methyl)piperidin-1-yl)pyridin-3-yl)piperidine-2,6-dione] | 0.27 nM | – | –
5 | CN(C(=O)CCC1CCN(c2ccc(C3CCC(=O)NC3=O)cn2)CC1)c1ccc2cc(-c3n[nH]c4c3C[C@@H]3C(F)(F)[C@]3(C)C4)[nH]c2c1 (stereo partly drawn) [Compound 21, N-(2-((4aS,5aR)-5,5-difluoro-5a-methyl-1,4,4a,5,5a,6-hexahydrocyclopropa[f]indazol-3-yl)-1H-indol-6-yl)-3-(1-(5-(2,6-dioxopiperidin-3-yl)pyridin-2-yl)piperidin-4-yl)-N-methylpropanamide] | 0.01 nM | – | –
6 | C[C@@H](C(=O)N(C)c1ccc2cc(-c3n[nH]c4c3CCC(C)(C)C4)[nH]c2c1)N1CCN(CC2CCN(c3ccc(N4CCC(=O)NC4=O)cn3)CC2)CC1 [Compound 11, (S)—N-(2-(6,6-dimethyl-4,5,6,7-tetrahydro-1H-indazol-3-yl)-1H-indol-6-yl)-2-(4-((1-(5-(2,4-dioxotetrahydropyrimidin-1(2H)-yl)pyridin-2-yl)piperidin-4-yl)methyl)piperazin-1-yl)-N-methylpropanamide] | 2 nM | – | –
7 | CC1(C)CCc2c(-c3cc4ccc(C(=O)N5CCN(CC6CCN(c7ccc(C8CCC(=O)NC8=O)cn7)CC6)CC5)cc4[nH]3)n[nH]c2C1 (stereo not drawn) [Compound 47, 3-(6-(4-((4-(2-(6,6-dimethyl-4,5,6,7-tetrahydro-1H-indazol-3-yl)-1H-indole-6-carbonyl)piperazin-1-yl)methyl)piperidin-1-yl)pyridin-3-yl)piperidine-2,6-dione] | 4.6 nM | – | –
8 | CN(C(=O)CC[C@H]1CCN(c2ccc3c(c2)C(=O)N(C2CCC(=O)NC2=O)C3=O)C1)c1ccc2cc(-c3n[nH]c4c3C[C@@H]3C(F)(F)[C@]3(C)C4)[nH]c2c1 (stereo in doubt) [Compound 67, N-(2-((4aS,5aR)-5,5-difluoro-5a-methyl-1,4,4a,5,5a,6-hexahydrocyclopropafindazol-3-yl)-1H-indol-6-yl)-3-((3R)-1-(2-(2,6-dioxopiperidin-3-yl)-1,3-dioxoisoindolin-5-yl)pyrrolidin-3-yl)-N-methylpropanamide] | 2.3 nM | 75% | –
9 | C[C@@H](C(=O)N(C)c1ccc2cc(-c3n[nH]c4c3C[C@@H]3C(F)(F)[C@]3(C)C4)[nH]c2c1)N1CCN(CC2CCN(c3ccc(N4CCC(=O)NC4=O)cn3)CC2)CC1 [Compound 18, (S)—N-(2-((4aS,5aR)-5,5-difluoro-5a-methyl-1,4,4a,5,5a,6-hexahydrocyclopropa[f]indazol-3-yl)-1H-indol-6-yl)-2-(4-((1-(5-(2,4-dioxotetrahydropyrimidin-1(2H)-yl)pyridin-2-yl)piperidin-4-yl)methyl)piperazin-1-yl)-N-methylpropanamide] | 0.004 nM | – | –
10 | Cn1c(=O)n(C2CCC(=O)NC2=O)c2ccc(N3CCC(CN4CCC5(CC4)CCN(c4ccc6cc(-c7n[nH]c8c7CCC(C)(C)C8)[nH]c6c4)C5=O)CC3)cc21 (stereo not drawn) [Compound 14, 3-(5-(4-((2-(2-(6,6-dimethyl-4,5,6,7-tetrahydro-1H-indazol-3-yl)-1H-indol-6-yl)-1-oxo-2,8-diazaspiro[4.5]decan-8-yl)methyl)piperidin-1-yl)-3-methyl-2-oxo-2,3-dihydro-1H-benzo[d]imidazol-1-yl)piperidine-2,6-dione] | 0.16 nM | 89% | –
11 | C[C@@H](C(=O)N(C)c1ccc2cc(-c3n[nH]c4c3CCC(C)(C)C4)[nH]c2c1)N1CCN(CC2CCN(c3ccc(C4CCC(=O)NC4=O)cn3)CC2)CC1 (stereo partly drawn) [Compound 10, (2S)—N-(2-(6,6-dimethyl-4,5,6,7-tetrahydro-1H-indazol-3-yl)-1H-indol-6-yl)-2(4-((1-(5-(2,6-dioxopiperidin-3-yl)pyridin-2-yl)piperidin-4-yl)methyl)piperazin-1-yl)-N-methylpropanamide] | 0.48 nM | – | –
12 | C[C@@]12Cc3[nH]nc(C(=O)Nc4cnn(CC5CN(C(=O)C6CN(c7ccc(C8CCC(=O)NC8=O)cn7)C6)C5)c4)c3C[C@@H]1C2(F)F (stereo partly drawn) [Compound 49, (4aS,5aR)-N-(1-((1-(1-(5-(2,6-dioxopiperidin-3-yl)pyridin-2-yl)azetidine-3-carbonyl)azetidin-3-yl)methyl)-1H-pyrazol-4-yl)-5,5-difluoro-5a-methyl-1,4,4a,5,5a,6-hexahydrocyclopropa[f]indazole-3-carboxamide] | 3.9 nM | – | –
13 | CN(C(=O)CC[C@H]1CCN(c2ccc3c(c2)C(=O)N(C2CCC(=O)NC2=O)C3=O)C1)c1ccc2cc(-c3n[nH]c4c3C[C@@H]3C(F)(F)[C@]3(C)C4)[nH]c2c1 (stereo in doubt) [Compound 68] | 0.5 nM | – | 78%
14 | C[C@@]12Cc3[nH]nc(C(=O)Nc4cnn(CC5CN(C(=O)C6CN(C7CCN(c8ccc9c(c8)C(=O)N(C8CCC(=O)NC8=O)C9=O)CC7)C6)C5)c4)c3C[C@@H]1C2(F)F (stereo partly drawn) [Compound 42, (4aS,5aR)-N-(1-((1-(1-(1-(2-(2,6-dioxopiperidin-3-yl)-1,3-dioxoisoindolin-5-yl)piperidin-4-yl)azetidine-3-carbonyl)azetidin-3-yl)methyl)-1H-pyrazol-4-yl)-5,5-difluoro-5a-methyl-1,4,4a,5,5a,6-hexahydrocyclopropa[f]indazole-3-carboxamide] | 2.9 nM | 93% | –
15 | C[C@@H](C(=O)N(C)c1ccc2cc(-c3n[nH]c4c3CCC(C)(C)C4)[nH]c2c1)N1CCN(C[C@H]2CCN(c3ccc4c(c3)C(=O)N(C3CCC(=O)NC3=O)C4=O)C2)CC1 (stereo partly drawn) [Compound 33, (2S)—N-(2-(6,6-dimethyl-4,5,6,7-tetrahydro-1H-indazol-3-yl)-1H-indol-6-yl)-2-(4-(((3R)-1-(2-(2,6-dioxopiperidin-3-yl)-1,3-dioxoisoindolin-5-yl)pyrrolidin-3-yl)methyl)piperazin-1-yl)-N-methylpropanamide] | 3.4 nM | 85% | –
